This note sets out measurements from patent publication US20030064414A1, “Rapid assessment of coagulation activity in whole blood” (priority 2001, published 2003).

The subject of this test is whole blood. Put plainly: Recalcified clotting time of citrated whole blood, aprotinin and lipidated tissue factor added at assay initiation. In kind it is biochemical. The source says:
In the previous examples, blood was always collected in the presence of a calcium-chelating anticoagulant (citrate) and contact pathway inhibitor (aprotinin or corn trypsin inhibitor). It would be desirable for certain applications, for example hospital emergency department use, if blood could be […] into a standard commercially available and FDA-approved sodium citrate tube, such as that supplied by Becton Dickinson, Franklin Lakes, N.J. and Greiner America, Monroe, N.C. and the contact pathway inhibitor added concomitantly during assay initiation with lipidated tissue factor and divalent calcium. In this example, blood from a single donor was collected into sterile evacuated-tubes containing 3.2% buffered sodium citrate (Greiner). In FIG. 7A, clotting was initiated with calcium in the presence or absence of 15,000 KIU/ml aprotinin (Centerchem Inc., Norwalk, Conn.). […] In contrast, blood recalcified in the absence of aprotinin clotted in 250 sec. Thus, the contact pathway of blood coagulation has been abolished. FIG. 7B depicts a dose-response to Lovenox® when citrated blood was recalcified in the presence of 15,000 U/ml aprotinin and 10 units of lipidated tissue factor.
(>1500 sec) to 180 sec. The correlation (R^2) of clotting time to Enoxaparin® dose was 0.9915. The slope was 550 and intercept 210 sec. […]

Regarding “lipidated tissue factor: lipidated recombinant tissue factor with synthetic phospholipids, procoagulant that initiates the extrinsic pathway”, for the setting “citrated blood recalcified with 15,000 U/ml aprotinin and 10 units of lipidated tissue factor”, the recalcified clotting time is 180 s.

Regarding aprotinin, the recalcified clotting time (citrated blood, calcium and 15,000 KIU/ml aprotinin, no tissue factor, 1500 sec maximal clotting time, FIG. 7A) was greater than 1500 s.
